Results on two compounds are retold here after paper PMC11672299, “Conjugation of Polycationic Peptides Extends the Efficacy Spectrum of β‐Lactam Antibiotics” (Advanced Science, 2024).

Read-outs that look alike come from different tables or passages of the source. Some results are limits rather than exact numbers.

The subject of assay [1] is B. subtilis DSM 10. Put plainly: microbe, parasite or virus in culture. The class given is cell-based. A digest of the protocol: (§1)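 Broth microdilution in cation-adjusted MHB II with twofold serial compound dilutions; final inoculum 5 × 10^5 CFU mL^−1, incubated 20 h at 37 ± 1 °C. MIC = lowest concentration preventing visible growth. β-Lactamase inhibitors were added at fixed levels (clavulanic acid 2 mg L^−1, avibactam 4 mg L^−1).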

In assay [2] the test system is E. casseliflavus ATCC 700327. Put plainly: microbe, parasite or virus in culture. The class given is cell-based. A digest of the protocol: as §1
Assay [3] concerns E. coli Tü20‐025 (clinical isolate). As to the kind of experiment: microbe, parasite or virus in culture. The class given is cell-based. A digest of the protocol: as §1
The subject of assay [4] is K. pneumoniae Tü20‐036 (clinical isolate). Put plainly: microbe, parasite or virus in culture. The class given is cell-based. The essentials: as §1
Assay [5] concerns S. aureus NCTC 10442 (MRSA). Put plainly: microbe, parasite or virus in culture. The class given is cell-based. The essentials:
as §1

For assay [6], the system named is CTZ‐resistant P. aeruginosa (n = 2). The class given is cell-based. How it is done: The minimum inhibitory concentration (MIC) of the β‐lactam–peptide conjugates was determined by broth microdilution as previously described.^[ [17] ^] Briefly, in cation‐adjusted MHB II medium, a twofold serial dilution of the compounds was prepared in 96‐well round‐bottom polystyrene or polypropylene microtiter plates with each well containing 50 µL. The plates were inoculated with 50 µL bacterial suspension and the final inoculum, in a total volume of 100 µL, contained 5 × 10^5 CFU mL^−1. The microplates were incubated for 20 h at 37 ± 1 °C. The lowest concentration preventing visible bacterial growth was considered the MIC value. For susceptibility testing of combinations of β‐lactamase‐inhibitors with either a β‐lactam antibiotic or a β‐lactam–peptide conjugate, fixed concentrations of the inhibitors according to the EUCAST (European Committee on Antimicrobial Susceptibility Testing) guidelines (clavulanic acid = 2 mg L^−1, avibactam = 4 mg L^−1) were used.

Assay [7] deals with B. subtilis DSM 10. Put plainly: Time‐kill assay. The class given is cell-based. Conditions: for killing mechanism (time‐kill kinetics, CFU mL^−1): 50 or 100 µM, over 24 h. How it is done:
For determination of time‐kill kinetics of the β‐lactam–peptide conjugates and their parent β‐lactams, 14 mL of cation‐adjusted MHB II medium was inoculated with an B. subtilis DSM 10 overnight culture to obtain an OD600 of 0.5, corresponding to ≈10^8 CFU mL^−1. To this exponentially growing culture, 50 or 100 µM of each of the antibiotics was added except for a negative control culture which was treated with only water. The bacterial cultures were incubated at 30 °C and 200 rpm and the OD600 was measured on 1 mL aliquots taken at 0, 10, 30, 45, 60, 90, 120, 240, 360, 480 and 1440 min. Additionally, at the same time points, 15 µL of serial tenfold dilutions of the bacterial suspension were plated onto MHB II agar plates. The agar plates were incubated overnight at 30 °C. The next day, bacterial colonies were counted and the CFU mL^−1 were calculated (limit of detection: 10^1.8 CFU mL^−1). For each antibiotic the assay was performed in triplicate (three biological replicates).

For a further assay, the target named is PBP1A/B (Bacillus subtilis, UniProt P39793). Put plainly: Gel‐based PBP affinity assay (Bocillin FL competition). Conditions: B. subtilis membrane fractions, competition with Bocillin FL penicillin. The class given is binding. How it is done: (§2) B. subtilis DSM 10 and E. faecalis ATCC 51 299 (equal to DSM 12 956) membrane protein fractions were extracted according to the protocol of Dean et al. with minor modifications.^[ [34] ^] From a growing overnight bacterial culture, 3 L of LB (Luria‐Bertani) medium or TSB (tryptic soy broth) were inoculated with B. subtilis DSM 10 and E. faecalis ATCC 51 299, respectively, to obtain an OD600 = 0.3. The cultures were grown to an OD600 = 0.6–0.8 while shaking at 37 °C and cells were harvested by centrifugation at 4000 g for 30 min at 4 °C. The resulting pellet was washed twice with pre‐cooled PBS and resuspended in 30 mL of ice‐cooled PBS. The suspension was sonicated on ice (10 cycles of 30 s at 50% power for B. subtilis; 12 cycles of 30 s at 80% power for E. faecalis; 2 min intervals between cycles) using an Omni Ruptor 4000 ultrasonic homogenizer (Omni International, Kennesaw, GA, USA). Afterwards, the suspension was centrifuged at 7000 g for 10 min at 4 °C. The clear supernatant was transferred into a 50 mL polypropylene tube and centrifuged in a Beckman Coulter centrifuge equipped with a JA‐20 fixed‐angle rotor (Beckman Coulter, Krefeld, Germany) at 50 000 g for 1 h at 4 °C. The resulting pellet was washed with ice‐cold PBS and centrifuged a second time. The pellet was resuspended in 2 mL PBS and aliquots were stored at −80 °C. The protein content was determined using Bradford reagent (VWR International, Darmstadt, Germany) and Pierce BCA (bicinchoninic acid) protein assay kits (Thermo Fisher Scientific, Waltham, MA, USA) for membrane fractions of B. subtilis and E. faecalis, respectively.
(§3) Each dilution was combined with B. subtilis (30 µg) or E. faecalis (15 µg) extracted membrane fractions. As reference samples, membrane fractions incubated with only PBS were prepared. Reaction mixtures were incubated for 20 min at 37 °C while shaking at 400 rpm. Next, Bocillin FL penicillin (Thermo Fisher Scientific, Waltham, MA, USA) was added to obtain a final concentration of 20 µM in the mixture. Samples were incubated for 30 min at 37 °C while shaking at 400 rpm. To denature the samples, 4× Laemmli sample buffer (Bio‐Rad Laboratories, Feldkirchen, Germany) was added, and the samples incubated for 10 min at 70 °C. Afterwards, the samples were centrifuged for 5 min at 13 000 rpm. Samples were separated by SDS‐PAGE using a 10% Tris‐glycine gel for 100 min at 180 V. The bands were visualized using a Typhoon FLA 9500 imager (GE Healthcare, Chicago, IL, USA) with excitation at 473 nm. The gel images were analyzed using ImageJ software. Brightness and contrast were adjusted to improve the signal‐to‐noise ratio and the background signal was subtracted over the whole image. Next, integrated density values of the gel bands were measured and Bocillin FL penicillin labeling of each PBP in antibiotic‐treated samples were set in proportion to the reference sample. IC50 values were calculated with GraphPad Prism software (version 8.0.1) using inhibitor versus normalized response variable slope and least‐squares fit. […] The mean was calculated using the IC50 values of at least two independent assays for each antibiotic.

The target in another assay is T1, PBP2B (Bacillus subtilis, UniProt Q07868).
T1 construct: endogenous in cells; host or cells: B. subtilis DSM 10, extracted membrane protein fraction
The assay is described as above. The class given is binding. Conditions: B. subtilis membrane fractions, competition with Bocillin FL penicillin. How it is done: as §2, §3

For the next assay, the target named is T2, PBP4 (Bacillus subtilis, UniProt P40750).
T2 construct: endogenous in cells; host or cells: B. subtilis DSM 10, extracted membrane protein fraction
The assay is described as above. The class given is binding. Particulars: B. subtilis membrane fractions, competition with Bocillin FL penicillin. The protocol:
as §2, §3

T1 sequence (Q07868 whole entry): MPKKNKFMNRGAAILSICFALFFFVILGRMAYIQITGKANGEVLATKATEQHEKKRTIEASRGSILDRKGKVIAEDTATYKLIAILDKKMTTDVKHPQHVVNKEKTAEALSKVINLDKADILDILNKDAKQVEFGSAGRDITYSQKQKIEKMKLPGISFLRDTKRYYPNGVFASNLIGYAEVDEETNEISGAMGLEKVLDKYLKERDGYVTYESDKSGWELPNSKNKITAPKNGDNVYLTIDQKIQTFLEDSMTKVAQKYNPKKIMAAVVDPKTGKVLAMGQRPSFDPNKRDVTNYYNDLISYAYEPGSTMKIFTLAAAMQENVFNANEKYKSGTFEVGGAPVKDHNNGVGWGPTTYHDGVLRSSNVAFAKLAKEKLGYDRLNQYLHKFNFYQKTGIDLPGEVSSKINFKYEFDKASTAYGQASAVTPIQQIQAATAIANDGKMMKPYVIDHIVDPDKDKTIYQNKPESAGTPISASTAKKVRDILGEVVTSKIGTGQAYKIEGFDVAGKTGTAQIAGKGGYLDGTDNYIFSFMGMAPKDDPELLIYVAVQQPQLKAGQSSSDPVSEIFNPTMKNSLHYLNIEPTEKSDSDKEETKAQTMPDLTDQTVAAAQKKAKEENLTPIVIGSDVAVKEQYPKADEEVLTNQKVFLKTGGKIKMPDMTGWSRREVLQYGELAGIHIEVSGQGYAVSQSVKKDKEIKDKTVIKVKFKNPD
Chain of PBP1A/B (P39793 1-662): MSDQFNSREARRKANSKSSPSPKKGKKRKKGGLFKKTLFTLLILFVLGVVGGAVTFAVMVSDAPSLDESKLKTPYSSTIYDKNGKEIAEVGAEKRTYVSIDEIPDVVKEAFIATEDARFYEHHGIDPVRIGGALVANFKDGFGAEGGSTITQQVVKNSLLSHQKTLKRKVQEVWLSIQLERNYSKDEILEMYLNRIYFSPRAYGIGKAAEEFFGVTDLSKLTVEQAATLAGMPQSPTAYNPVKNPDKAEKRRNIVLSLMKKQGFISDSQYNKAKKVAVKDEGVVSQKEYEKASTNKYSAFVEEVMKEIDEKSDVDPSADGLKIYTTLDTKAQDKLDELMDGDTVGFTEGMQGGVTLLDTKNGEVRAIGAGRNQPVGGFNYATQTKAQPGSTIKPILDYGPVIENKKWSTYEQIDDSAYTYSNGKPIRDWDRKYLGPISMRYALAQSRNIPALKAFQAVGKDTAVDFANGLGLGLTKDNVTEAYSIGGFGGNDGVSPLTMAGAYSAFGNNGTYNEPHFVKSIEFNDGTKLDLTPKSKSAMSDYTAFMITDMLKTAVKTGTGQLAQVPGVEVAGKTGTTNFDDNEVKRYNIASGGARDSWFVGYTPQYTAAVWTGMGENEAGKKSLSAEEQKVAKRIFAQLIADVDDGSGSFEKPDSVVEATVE
T2 sequence (P40750 22-624): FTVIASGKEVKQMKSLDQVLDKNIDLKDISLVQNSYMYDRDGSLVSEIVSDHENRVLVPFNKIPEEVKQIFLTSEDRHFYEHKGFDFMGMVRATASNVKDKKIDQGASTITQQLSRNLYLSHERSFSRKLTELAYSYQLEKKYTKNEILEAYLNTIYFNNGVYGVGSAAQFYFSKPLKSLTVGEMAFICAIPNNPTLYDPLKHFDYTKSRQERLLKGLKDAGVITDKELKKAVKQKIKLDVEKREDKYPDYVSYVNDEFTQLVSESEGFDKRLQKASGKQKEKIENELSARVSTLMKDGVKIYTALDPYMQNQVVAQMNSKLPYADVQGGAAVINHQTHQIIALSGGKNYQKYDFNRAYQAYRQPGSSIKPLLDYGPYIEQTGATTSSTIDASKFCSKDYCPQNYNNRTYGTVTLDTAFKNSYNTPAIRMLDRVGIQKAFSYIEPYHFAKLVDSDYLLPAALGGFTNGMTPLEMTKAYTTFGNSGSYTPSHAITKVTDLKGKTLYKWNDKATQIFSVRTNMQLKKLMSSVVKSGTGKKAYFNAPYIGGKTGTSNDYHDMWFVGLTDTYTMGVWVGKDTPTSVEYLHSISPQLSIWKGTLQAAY

Turning to `CC(C)(O/N=C(\C(=O)N[C@@H]1C(=O)N2C(C(=O)[O-])=C(C[n+]3ccccc3)CS[C@H]12)c1csc(N)n1)C(=O)O` [CTZ, ceftazidime, reference compound], the MIC in the assay with B. subtilis DSM 10 [1] (Bacillus subtilis, DSM10, B. subtilis DSM 10, median (n = 3), read-out: MIC) is 8 µg/mL; in assay [2] (Enterococcus casseliflavus, ATCC700327, E. casseliflavus ATCC 700327, median (n = 3), read-out: MIC), greater than 2050 µg/mL; in assay [3] (Escherichia coli, E. coli Tü20‐025, median (n = 3), read-out: MIC) it was 2 µg/mL; in assay [4] (Klebsiella pneumoniae) it was 0.125 µg/mL; in [5] (Staphylococcus aureus, S. aureus NCTC 10442 (MRSA), median (n = 3), read-out: MIC) it was 16 µg/mL. Further, the MIC range in assay [6] (CTZ‐resistant P. aeruginosa (n = 2)) is 32 to 64 µg/mL. Further, in the assay on B. subtilis DSM 10 [7], the “killing mechanism (time‐kill kinetics, CFU mL^−1)” value was “time‐dependent killing mechanism”. Also, at PBP1A/B, the “binding to PBP1A/B” value was “strong binding”. The “binding to PBP2B” value on PBP2B is listed as “strong binding”. For the same compound, at PBP4, the “binding to PBP4” value was “strong binding”.
For the compound `CC(C)(O/N=C(\C(=O)N[C@@H]1C(=O)N2C(C(=O)[O-])=C(C[n+]3ccccc3)CS[C@H]12)c1csc(N)n1)C(=O)NCCCCCCN1C(=O)CC(SC[C@H](NC(=O)[C@H](CCCNC(=N)N)NC(=O)[C@H](CCCNC(=N)N)NC(=O)[C@H](CCCNC(=N)N)NC(=O)[C@H](CCCNC(=N)N)NC(=O)[C@H](CCCNC(=N)N)NC(=O)[C@@H](N)CCCNC(=N)N)C(N)=O)C1=O` (stereo partly drawn) [CTZ-R6], the MIC in the assay on B. subtilis DSM 10 [1] (DSM 10, 20 h) is 0.008 µg/mL; in assay [2] (ATCC 700327, 20 h) it was 0.25 µg/mL; in [3] (Tü20‐025 (clinical isolate, 20 h)), 0.5 µg/mL; in assay [4] (Tü20‐036 (clinical isolate, 20 h)), 0.0625 µg/mL; in assay [5] (NCTC 10442, 20 h) it was 2 µg/mL. Besides, in [6] (CTZ‐resistant (n = 2, 20 h)), the MIC range was in the range of 2 to 16 µg/mL. Further, in the assay with B. subtilis DSM 10 [7] (100 µM, after 6 h), the “drop in CFU (to the detection limit)” value was determined as 6 log units. For the same compound, the “killing mechanism (time‐kill kinetics, CFU mL^−1)” value with B. subtilis DSM 10 [7] was “concentration‐dependent killing mechanism”. Besides, the “binding to PBP1A/B” value on PBP1A/B is “decreased in comparison to CTZ”. Also, the “binding to PBP2B” value at PBP2B is reported as “showed affinity”. Also, on PBP4, the “binding to PBP4” value was “decreased in comparison to CTZ”.
